Source: US10150760B2, “Compounds for use in preparing heterocyclic triazole agonists of the APJ receptor” (AMGEN INC., priority 2016, dated 2018)

Target: human APJ receptor (Homo sapiens (Human), UniProt P35414)
Experiment: [35S]GTPγS binding assay on membranes from CHO cells stably expressing human APJ receptor
Assay type: biochemical
Settings: read-out: Activity hAPJ SPA EC50 IP
Procedure, shortened: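 Membranes from CHO cells stably expressing human APJ incubated with ligand, 0.2 nM [35S]GTPγS and WGA SPA beads in HEPES pH 7.5 with 5 mM MgCl2, 200 mM NaCl, 3 μM GDP, 90 min at RT. Nonspecific binding defined with 100 μM GTPγS; EC50 by non-linear regression.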

human APJ receptor, sequence (P35414 whole entry): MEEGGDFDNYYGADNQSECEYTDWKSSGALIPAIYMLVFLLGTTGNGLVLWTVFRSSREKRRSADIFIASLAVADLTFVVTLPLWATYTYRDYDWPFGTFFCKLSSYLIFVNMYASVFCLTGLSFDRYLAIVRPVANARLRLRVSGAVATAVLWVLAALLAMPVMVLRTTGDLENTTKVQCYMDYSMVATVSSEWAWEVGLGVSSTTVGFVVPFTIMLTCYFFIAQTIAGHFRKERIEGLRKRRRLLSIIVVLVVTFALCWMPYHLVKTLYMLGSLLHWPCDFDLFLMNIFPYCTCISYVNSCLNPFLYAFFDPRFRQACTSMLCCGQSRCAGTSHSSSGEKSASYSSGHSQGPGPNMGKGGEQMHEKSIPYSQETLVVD

EC50 [nM] | Substance
470 | (2R)-N-(4-(2,6-dimethoxyphenyl)-5-(tetrahydro-2H-pyran-4-yl)-4H-1,2,4-triazol-3-yl)-1-(5-fluoro-2-pyrimidinyl)-2-propanesulfonamide and (2S)-N-(4-(2,6-dimethoxyphenyl)-5-(tetrahydro-2H-pyran-4-yl)-4H-1,2,4-triazol-3-yl)-1-(5-fluoro-2-pyrimidinyl)-2-propanesulfonamide [Example 15.0]
380 | (2R)-N-(4-(2,6-dimethoxyphenyl)-5-(tetrahydro-2H-pyran-4-yl)-4H-1,2,4-triazol-3-yl)-1-(5-fluoro-2-pyrimidinyl)-2-propanesulfonamide or (2S)-N-(4-(2,6-dimethoxyphenyl)-5-(tetrahydro-2H-pyran-4-yl)-4H-1,2,4-triazol-3-yl)-1-(5-fluoro-2-pyrimidinyl)-2-propanesulfonamide [Example 16.0]
810 | (2R)-N-(4-(2,6-dimethoxyphenyl)-5-(tetrahydro-2H-pyran-4-yl)-4H-1,2,4-triazol-3-yl)-1-(5-fluoro-2-pyrimidinyl)-2-propanesulfonamide or (2S)-N-(4-(2,6-dimethoxyphenyl)-5-(tetrahydro-2H-pyran-4-yl)-4H-1,2,4-triazol-3-yl)-1-(5-fluoro-2-pyrimidinyl)-2-propanesulfonamide [Example 17.0]
92 | (2S,3R)-3-(5-chloro-2-pylimidinyl)-N-(4-(1,3-dimethoxy-2-propanyl)-5-((2R,5R)-5-methyltetrahydro-2-furanyl)-4H-1,2,4-triazol-3-yl)-2-butanesulfonamide or (2S,3R)-3-(5-chloro-2-pyrimidinyl)-N-(4-(1,3-dimethoxy-2-propanyl)-5-((2S,5S)-5-methyltetrahydro-2-furanyl)-4H-1,2,4-triazol-3-yl)-2-butanesulfonamide [Example 375.0]
240 | (2S,3R)-3-(5-chloro-2-pyridinyl)-N-(4-(1,3-dimethoxy-2-propanyl)-5-((2R,5R)-5-methyltetrahydro-2-furanyl)-4H-1,2,4-triazol-3-yl)-2-butanesulfonamide or (2S,3R)-3-(5-chloro-2-pyridinyl)-N-(4-(1,3-dimethoxy-2-propanyl)-5-((2S,5S)-5-methyltetrahydro-2-furanyl)-4H-1,2,4-triazol-3-yl)-2-butanesulfonamide [Example 372.0]
8 | (2S,3R)-3-(5-chloro-2-pyridinyl)-N-(4-(1,3-dimethoxy-2-propanyl)-5-((2R,5R)-5-methyltetrahydro-2-furanyl)-4H-1,2,4-triazol-3-yl)-2-butanesulfonamide or (2S,3R)-3-(5-chloro-2-pyridinyl)-N-(4-(1,3-dimethoxy-2-propanyl)-5-((2S,5S)-5-methyltetrahydro-2-furanyl)-4H-1,2,4-triazol-3-yl)-2-butanesulfonamide [Example 373.0]
5.6 | (2S,3R)-3-(5-chloro-2-pyrimidinyl)-N-(4-(1,3-dimethoxy-2-propanyl)-5-((2R,5R)-5-methyltetrahydro-2-furanyl)-4H-1,2,4-triazol-3-yl)-2-butanesulfonamide or (2S,3R)-3-(5-chloro-2-pyrimidinyl)-N-(4-(1,3-dimethoxy-2-propanyl)-5-((2S,5S)-5-methyltetrahydro-2-furanyl)-4H-1,2,4-triazol-3-yl)-2-butanesulfonamide [Example 374.0]
200 | (2S,3R)-3-(5-chloropyrimidin-2-yl)-N-(4-(2,6-dimethoxyphenyl)-5-((R)-1,1-dioxidotetrahydrothiophen-3-yl)-4H-1,2,4-triazol-3-yl)butane-2-sulfonamide or (2S,3R)-3-(5-chloropyrimidin-2-yl)-N-(4-(2,6-dimethoxyphenyl)-5-((S)-1,1-dioxidotetrahydrothiophen-3-yl)-4H-1,2,4-triazol-3-yl)butane-2-sulfonamide [Example 189.0]
300 | (2S,3R)-3-(5-chloropyrimidin-2-yl)-N-(4-(2,6-dimethoxyphenyl)-5-((R)-1,1-dioxidotetrahydrothiophen-3-yl)-4H-1,2,4-triazol-3-yl)butane-2-sulfonamide or (2S,3R)-3-(5-chloropyrimidin-2-yl)-N-(4-(2,6-dimethoxyphenyl)-5-((S)-1,1-dioxidotetrahydrothiophen-3-yl)-4H-1,2,4-triazol-3-yl)butane-2-sulfonamide [Example 190.0]
830 | (2S,3R)-3-(5-chloropyrimidin-2-yl)-N-(4-(2,6-dimethoxyphenyl)-5-((R)-3-oxoisoindolin-1-y1)-4H-1,2,4-triazol-3-yl)butane-2-sulfonamide or (2S,3R)-3-(5-chloropyrimidin-2-yl)-N-(4-(2,6-dimethoxyphenyl)-5-((S)-3-oxoisoindolin-1-yl)-4H-1,2,4-triazol-3-yl)butane-2-sulfonamide [Example 235.0]
230 | (2S,3R)-3-(5-chloropyrimidin-2-yl)-N-(4-(2,6-dimethoxyphenyl)-5-((S)-3-oxoisoindolin-1-yl)-4H-1,2,4-triazol-3-yl)butane-2-sulfonamide or (2S,3R)-3-(5-chloropyrimidin-2-yl)-N-(4-(2,6-dimethoxyphenyl)-5-((R)-3-oxoisoindolin-1-yl)-4H-1,2,4-triazol-3-yl)butane-2-sulfonamide [Example 234.0]

Substance | EC50 [nM]
(2R,3S)-N-(4-(2,6-dimethoxyphenyl)-5-((S)-tetrahydrofuran-2-yl)-4H-1,2,4-triazol-3-yl)-3-(5-methylpyrimidin-2-yl)butane-2-sulfonamide or (2R,3S)-N-(4-(2,6-dimethoxyphenyl)-5-((R)-tetrahydrofuran-2-yl)-4H-1,2,4-triazol-3-yl)-3-(5-methylpyrimidin-2-yl)butane-2-sulfonamide [Example 219.0] | 220
(2R,3S)-N-(4-(2,6-dimethoxyphenyl)-5-((S)-tetrahydrofuran-2-yl)-4H-1,2,4-triazol-3-yl)-3-(5-methylpyrimidin-2-yl)butane-2-sulfonamide or (2R,3S)-N-(4-(2,6-dimethoxyphenyl)-5-((R)-tetrahydrofuran-2-yl)-4H-1,2,4-triazol-3-yl)-3-(5-methylpyrimidin-2-yl)butane-2-sulfonamide [Example 220.0] | 510
(2S,3R)-3-(5-Chloropyrimidin-2-yl)-N-(4-(3,5-dibromo-2,6-dimethoxyphenyl)-5-((R)-tetrahydrofuran-3-yl)-4H-1,2,4-triazol-3-yl)butane-2-sulfonamide or (2S,3R)-3-(5-chloropyrimidin-2-yl)-N-(4-(3,5-dibromo-2,6-dimethoxyphenyl)-5-((S)-tetrahydrofuran-3-yl)-4H-1,2,4-triazol-3-yl)butane-2-sulfonamide [Example 254.0] | 310
(2S,3R)-3-(5-chloropyrimidin-2-yl)-N-(4-(3,5-dibromo-2,6-dimethoxyphenyl)-5-((R)-tetrahydrofuran-3-yl)-4H-1,2,4-triazol-3-yl)butane-2-sulfonamide or (2S,3R)-3-(5-chloropyrimidin-2-yl)-N-(4-(3,5-dibromo-2,6-dimethoxyphenyl)-5-((S)-tetrahydrofuran-3-yl)-4H-1,2,4-triazol-3-yl)butane-2-sulfonamide [Example 331.0] | 3500
